Measured values taken from US12662542B2, “Agnostic anti-mullerian hormone receptor binding peptides” (OVARES D LLC, priority 2019, dated 2026).
Square brackets hold non-standard residues; d marks the D form. Ends that are not written are not given here. Peptide text beside a SMILES is read from it.

Experiments:
[1] = tested on: granulosa cells (GCs); assay: Cell Counting Kit-8 (CCK-8) proliferation and cytotoxicity assay; assay type: cell-based, human
Method: GCs were isolated at the time of oocyte retrieval from three IVF/ICSI patients with tubal factor infertility as previously reported. Follicular aspirates were centrifuged at 900×g at room temperature. Blood contaminants were removed from GCs by Histopaque™ 1077 (Sigma-Aldrich™, St. Louis, MO, USA) gradient centrifugation at 800×g for 20 min at room temperature. The GC pellet was resuspended in a 20-ml volume of medium [Dulbecco's modified Eagle's medium/Ham's Nutrient Mixture F-12 (Gibco, Thermo Fisher Scientific, Inc., Waltham, MA, USA) with 10% fetal bovine serum (make) and washed by a further 10-min centrifugation at 500×g. The GC pellet was then resuspended in 1 ml GC preparation medium containing 0.02% (w/v) EDTA and gentle repeated pipetting was performed to break up any cellular clumps. Following further washing, the cell stock was resuspended in the GC culture medium. The cells were seeded in nine-well cell culture plates at a density of 100,000 cells/well in medium and incubated for 24 hours with PBS (control), the NegAMHR2BP (SEQ ID NO: 4), or AMHR2BP (SEQ ID NO: 1).
For determination of cytotoxicity of the novel AMHR2BP (SEQ ID NO: 1), a Cell Counting Kit-8 (CCK-8) proliferation and cytotoxicity assay was used. CCK-8 is a as a sensitive colorimetric assay where Dojindo's highly water-soluble tetrazolium salt is reduced by dehydrogenase activities in cells. Living cells reduce the salt, producing a yellow-color formazan dye, which is soluble in the culture media. The amount of dye, generated by the activities of dehydrogenases in GCs, is directly proportional to the number of living cells. CCK-8 detection sensitivity is very high. We tested the following: (a) AMHR2BP (SEQ ID NO: 1) concentrations: 20 μg/ml, 50 μg/ml, 80 μg/ml, in addition to (b) NegAMHR2BP (SEQ ID NO: 4) 80 μg/ml, and (c) untreated cells (control).

[2] = biological target: T1, AMH-R2 (Homo sapiens, UniProt Q16671); assay: peptide microarray assay identifying AMH receptor binding peptides; conditions: microarray signal
T1 construct: GST
T1 sequence (Q16671 18-573): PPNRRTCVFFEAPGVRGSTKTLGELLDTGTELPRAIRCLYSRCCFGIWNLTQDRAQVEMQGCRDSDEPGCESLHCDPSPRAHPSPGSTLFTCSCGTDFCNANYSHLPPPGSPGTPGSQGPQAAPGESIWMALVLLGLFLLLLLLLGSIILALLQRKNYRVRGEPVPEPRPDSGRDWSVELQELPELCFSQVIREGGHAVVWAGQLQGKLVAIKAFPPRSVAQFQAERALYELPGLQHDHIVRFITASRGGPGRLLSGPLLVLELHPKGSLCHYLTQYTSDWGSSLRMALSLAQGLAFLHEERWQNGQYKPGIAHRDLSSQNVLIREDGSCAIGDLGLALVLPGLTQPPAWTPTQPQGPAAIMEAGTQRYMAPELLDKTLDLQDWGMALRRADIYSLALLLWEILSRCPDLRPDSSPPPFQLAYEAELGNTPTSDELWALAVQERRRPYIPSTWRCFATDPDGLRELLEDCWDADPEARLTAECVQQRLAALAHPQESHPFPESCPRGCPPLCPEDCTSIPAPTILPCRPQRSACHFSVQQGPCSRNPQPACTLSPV
From the text: In view of the several actions of AMH, and because of the need for AMH receptor agonists and/or antagonist that can modify the activity of one or more of the AMH receptors, provided herein are AMH receptor binding peptides that modulate the activity of the AMH receptor, as described herein. Briefly, it was hypothesized that peptides that bind AMH receptors could be generated based on the amino acid sequence of the AMH biding site of the AMH-R2 receptor. More particularly, based on the amino acid sequence of the AMH-R2 that is responsible for binding AMH, as well as the amino acid sequences of AMH-R2 that are near the AMH binding site, a peptide microarray was used to identify candidate AMH receptor binding peptides that can activate AMH-R2 and thus produce similar effects to native AMH.
To identify candidate AMH receptor binding peptides described herein, a custom peptide library composed of replicate copies of a 124,000 17 mer peptide microarray was synthesized (Arizona State University, Tempe, AZ) using the method described in Legutki, J. B., et al., Scalable high-density peptide arrays for comprehensive health monitoring. Nat Commun., volume 5, 4785 (2014). The slide was assembled into an Arrayit 4×24 Hybridization Cassette and each peptide microarray was blocked with 150 uL of 30% human sera in 1×PBST for 1 hour at room temperature with shaking After blocking, the slide was washed 3× with 1×PBST using a Biotek plate washer prior to addition of protein targets. Each protein sample was diluted in 30% human sera in 1×PBST and 150 uL of each sample was dispensed into the appropriate wells in the cassette and incubated for 1 hour at 37 C with rotation at 300 rpm on a ThermoMix™ 500 heater/shaker.
After incubation, the cassette was dismantled, the slide washed 3 times in 1×PBST, rinsed three times with distilled, deionized water (ddH2O), and dried in a centrifuge for 2 minutes at 800 rpm. Secondary antibody (anti-GST, GE Healthcare™) was prepared at 10 nM in 30% human sera in 1×PBST and dispensed onto the slide. The slide was incubated for 1 hour at 37 C with rotation at 300 rpm as before. The slide was then washed 3 times in 1×PBST, rinsed 3 times with ddH2O, and dried in a centrifuge for 2 minutes at 800 rpm. Detection antibody, 10 nM Alexa Flour 647 donkey anti-goat IgG (H+L) (ThermoFisher Scientific™), was prepared in 0.75% casein in 1×PBST and dispensed onto the slide. The slide was covered and incubated for 1 hour at 37 C with rotation as before. The slide was washed 3 times in 1×PBST, rinsed 3 times with ddH2O, and dried in a centrifuge for 2 minutes at 800 rpm. The slide was scanned on an Innopsys™ Inoscan 910AL scanner and the resulting TIFF files were analyzed using the Genepix™ Pro 6.0 software. Data files were exported and analyzed using Microsoft Excel™ and JMP™ software.

[3] = tested on: A2780 (endometroid ovarian cancer) cells; assay: MTT cell proliferation assay; assay type: cell-based; conditions: 5, 10 and 20 μg/ml, 24 hours, vs untreated control
Method: (§1) This example describes the effect of the AMH receptor binding peptides from Example 1 on cellular proliferation, in accordance with certain example embodiments. Briefly, the first two AMH receptor binding peptides (SEQ ID NOS:1-2) from Table 1 were tested on four types of AMHR2-expressing, immortalized, chemotherapy-resistant ovarian cancer cells: SKOV-3 (ovarian serous cystadenocarcinoma), EL-1 (epithelial ovarian cancer), A2780 (endometroid ovarian cancer), and MDAH (endometroid ovarian cancer) in an MTT Assay (Trevigen™ MTT Cell Proliferation Assay).
(§2) For each cell line, cells were seeded into Falcon tissue culture treated 96-well plates in a fixed volume of 100 mcl at a density of 8,000 cells/well. […] Each experiment was executed in triplicates. For 3+1 treatments×3 wells+10 extra=22 wells×8000 cells per well, the total number of cells needed per AMH receptor binding peptide/cell line was 176,000. The cells were spun down in a sterile 15 ml conical tube for 5 minutes at 200×g and then resuspended in 2.2 ml of media (100 ul per well×22 wells). 100 mcl of the cell-containing fluid (=8,000 cells) were placed in each well of the 96-well plate. After 24 hours the media was removed from each well and replaced with the 4 treatment media (phenol-free media). At this point, 10 extra wells with media, but no cells, were created per each cell line (10×4=40 wells). The AMH receptor binding peptides (AMHR2BP (SEQ ID NO: 1) or AMHR2BP2 (SEQ ID NO: 2)) were administered in the culture medium and the effects analyzed after 24 hours in culture as percentage reduction of cell replication using an MTT […] assay.

[4] = tested on: EL-1 (epithelial ovarian cancer) cells; assay: MTT cell proliferation assay; assay type: cell-based; conditions: 5, 10 and 20 μg/ml, 24 hours, vs untreated control
Method: as §1, §2

[5] = tested on: MDAH (endometroid ovarian cancer) cells; assay: MTT cell proliferation assay; assay type: cell-based; conditions: 5, 10 and 20 μg/ml, 24 hours, vs untreated control
Method: as §1, §2

[6] = tested on: SKOV-3 (ovarian serous cystadenocarcinoma) cells; assay: MTT cell proliferation assay; assay type: cell-based; conditions: 5, 10 and 20 μg/ml, 24 hours, vs untreated control
Method: as §1, §2

Q: Which results are given for CC(C)C[C@@H](NC(=O)[C@@H](C)NC(=O)[C@@H](NC(=O)CNC(=O)[C@H](CO)NC(=O)[C@@H](NC(=O)[C@@H](CCCNC(=N)N)NC(=O)[C@H](Cc1ccccc1)NC(=O)[C@H](CCC(N)=O)NC(=O)[C@H](CC(N)=O)NC(=O)[C@H](Cc1ccc(O)cc1)NC(=O)[C@H](C)NC(=O)[C@H](CC(N)=O)NC(=O)[C@H](CO)NC(=O)CNC(=O)[C@@H](N)C(C)C)C(C)C)C(C)C)C(=O)N[C@@H](CO)C(=O)O [SEQ ID NO: 1, VGSNAYNQFrVSGValS] (H-VGSNAYNQF[dR]VSGV[dA][dL]S-OH)?
A: GCs considered lifeless ([1]; 20 μg/ml): 23%; GCs that ceased function and were considered lifeless ([1]; 80 μg/ml): 74%

Q: How did the GC toxicity ([1]; 80 μg/ml) turn out when CC(C)C[C@@H](NC(=O)[C@@H](C)NC(=O)[C@@H](CCCNC(=N)N)NC(=O)[C@H](CCC(N)=O)NC(=O)[C@H](CC(N)=O)NC(=O)[C@@H](C)NC(=O)[C@H](CC(N)=O)NC(=O)[C@H](C)NC(=O)[C@H](Cc1ccccc1)NC(=O)[C@H](Cc1c[nH]cn1)NC(=O)[C@@H](CCCCN)NC(=O)[C@H](CC(N)=O)NC(=O)[C@H](CO)NC(=O)[C@@H](C)NC(=O)CNC(=O)[C@@H](Cc1c[nH]c2ccccc12)NC(=O)[C@H](N)CCCNC(=N)N)C(=O)O [SEQ ID NO: 4, rwGaSNkHFANaNQral] (H-[dR][dW]G[dA]SN[dK]HFAN[dA]NQ[dR][dA][dL]-OH; N-terminus and C-terminus assumed) was run?
A: The GC toxicity was “low GC toxicity”.

Q: Which Average ([2]; average of Rep 1 and Rep 2) does the source give for “NGSSlQAVNrlSGVS (NGSS[dL]QAVN[dR][dL]SGVS) [SEQ ID NO: 2]” here?
A: Its Average is 65535.

Q: What about the “Rep 1” value ([2]; replicate 1) of the same molecule?
A: Its value is 65535.

Q: What about the “Rep 2” value ([2]; replicate 2) of the same molecule?
A: Its value is 65535.

Q: What about the cell proliferation [3] of the same molecule?
A: Its cell proliferation is “reduced cellular proliferation”.

Q: What about the cell proliferation [4] of the same molecule?
A: The cell proliferation was “reduced cellular proliferation”.

Q: And the cell proliferation [5]?
A: The cell proliferation was “reduced cellular proliferation”.

Q: And the cell proliferation [6]?
A: Its cell proliferation is “reduced cellular proliferation”.
